Entries after “also recorded” stand apart in the source; their conditions may differ.
Legend:
[1] = cited from earlier work
[2] = in vivo
Protocol: Patients completed diary cards throughout 16 weeks and were asked to note any side effects; they were seen after 4, 12 and 16 weeks. On completion of the trial a further sigmoidoscopy was performed to ensure the muscosa appeared normal. Patients were seen promptly if symptoms recurred and a sigmoidoscopy was performed at that time. A relapse was defined as a recurrence of symptoms with increased stool frequency and blood loss with sigmoidoscopic changes of contact or spontaneous mucosal haemorrhage (grade 3) or the presence of pus with bleeding and ulceration (grade 4). Blood was taken for a routine blood count and examination of the film at each clinic attendance and measurements of the serum electrolytes and liver function tests were performed initially and after 16 weeks. The study, which was randomised and double-blind in design, involved using identical placebo tablets for both sulphasalazine and 5-ASA; each patient was given two sets of tablets with either active 5-ASA and placebo sulphasalazine or placebo 5-ASA and active sulphasalazine. The patient's usual dose of sulphasalazine was continued with a minimum dose of 2 grams daily. The tablets of 5-ASA contained 400 mg (ie the amount of 5-ASA contained in 1 gram of sulphasalazine). […] Compliance was checked at each hospital visit by counting the number of tablets returned. […]

[3] = test system: ulcerative colitis or proctitis; assay: Randomised double-blind 16 week maintenance trial in colitis: relapse; assay type: in vivo, patients
Protocol: Seventy-two patients who were in remission with ulcerative colitis or proctitis and taking at least 4 sulphasalazine tablets each day gave their informed consent to a clinical trial. Remission was defined as the passage of three or fewer stools each day without blood or slime during the previous month. Thirty-six patients were male and 36 female. Sigmoidoscopy with rectal biopsy was performed initially and patients only entered the trial if the mucosa was normal (grade 1) or oedematous (grade 2). Biopsies were coded and reviewed by a pathologist who graded them as 1 (normal) or grades 2, 3 or 4 representing mild, moderate or severe inflammatory change.
At least 3 tablets of 5-ASA were taken daily (1200 mg) with an increased dose of 1 tablet for each gram of sulphasalazine above the minimum entry dose of 2 grams for patients taking a high dose of sulphasalazine. […]

[4] = test system: colitis, Crohn's disease, idiopathic proctitis and chronic arthritis; conditions: in vivo; cited from earlier work
[5] = Serum sulphapyridine levels after ingestion of coated capsules (HPLC)
Protocol: Six convalescent patients, 3 male and 3 female with a mean age of 57 years, from a general medical ward gave informed consent to a clinical trial. […] The thickness of the coat was checked using a micrometer to establish the range of thickness and to measure both the wide and narrow end of the capsule. Each capsule contained barium sulphate (300 mg) potato starch (20 mg) and sulphapyridine (300 mg) as a convenient marker Plain abdominal X-rays were taken at 5, 8 and 12 hours after ingestion and blood samples at 0, 3, 5, 7, 9, 12 and 24 hours after ingestion to assay sulphapyridine levels.
Sulphapyridine was analysed by high pressure liquid chromotography (HPLC) using a modification of the method described by Shaw et al (J. Pharm. Pharmacol. 1980;32;67). The analysis was performed on a LiChrosorb 10 RP 18 bonded silica reversed phase column (Merck). The mobile phase was acetonitrile--0.05M potassium dihydrogen phosphate solution (20:80) containing 0.1 per cent tetrabutyl ammonium hydroxide. Sulphapyridine was detected spectrometrically at 260 nm. Serum samples were treated with an equal volume of ethanol to precipitate plasma proteins and after centrifugation, the supernatant was injected on to the chromatograph. Sulphapyridine concentration was read directly from a calibration curve which was linear over the range 1-25 μg/ml (R=0.99).

SMILES: O=C(O)c1cc(/N=N/c2ccc(S(=O)(=O)Nc3ccccn3)cc2)ccc1O [sulphasalazine, Salicylazosulphapyridine]
- absorption after oral administration [1]: only absorbed to a limited extent before reaching the colon
- side effects (headache, nausea or indigestion), comparison between groups [2]: no difference
- Relapses ([3]; 16 weeks, 34 patients on 5-ASA (coated tablets, at least 1200 mg daily), 33 on sulphasalazine (minimum 2 grams daily)): 6 patients
- usefulness in treatment [4]: useful in the treatment of colitis, Crohn's disease, idiopathic proctitis and chronic arthritis

SMILES: Nc1ccc(S(=O)(=O)Nc2ccccn2)cc1 [sulphapyridine]
- clearance / excretion ([1]; in vivo): slowly cleared from the serum
- absorption after oral administration [1]: almost entirely absorbed from the small intestine before reaching the colon
- drug detected in serum 3 hours after ingestion ([5]; 3 hours, any patient): No drug was detected
- time of maximal serum levels ([5]; human, in vivo): 12 or 24 hours after ingestion
- patients with drug detected in serum 5 hours after ingestion ([5]; in vivo): 2 patients

SMILES: Nc1ccc(O)c(C(=O)O)c1 [Example 5-ASA, 5-amino-salicylic acid]
- clearance / excretion ([1]; in vivo): excreted rapidly after acetylation
- serum levels ([1]; in vivo): very low
- side effects (headache, nausea or indigestion), comparison between groups [2]: no difference
- significance of difference in relapses between 5-ASA and sulphasalazine ([3]; chi squared): not statistically significant; also recorded: p = NS
- usefulness in treatment [4]: pharmacologically active agent in the treatment of colonic and rectal ailments

Source: patent publication US5541171A, “Orally administrable pharmaceutical composition” (priority 1981, dated 1996)
